In patent publication US9776149B2, “Compositions and methods for preparing nanoformulations and systems for nano-delivery using focused acoustics” (Covaris, Inc., priority 2010, dated 2017):

Legend:
[1] = Particle size of drug suspensions before and after focused acoustic processing (Malvern Mastersizer 2000 / Zetasizer Nano ZS-90); assay type: physicochemical
Text: Particle size distributions of mixtures and/or nanoformulations described herein may be measured using dynamic laser light scattering, also called Photon correlation spectroscopy (e.g., using Malvern Zetasizer-S, Zetasizer Nano ZS-90 or Mastersizer 2000 instruments; Malvern Instruments Inc.; Southborough Mass.). The Malvern Zetasizer-S instrument was used to estimate average particle sizes with a 4 mW He—Ne laser operating at a wavelength of 633 nm and an avalanche photodiode detector (APD). The average size of particles in a mixture may be estimated as the mean hydrodynamic size. The particle size distribution may be estimated according to polydispersity index (PDI), which is known in the art as a measure of the tightness of a distribution. The average size of particles and the PDI of mixtures and nanoformulations discussed herein are calculated according to the International Standard on dynamic light scattering, ISO 13321.
Suspension mixtures were prepared in water (deionized and purified by a Barnstead water purification system), methyl cellulose (from Sigma Aldrich) and sodium lauryl sulfate (from Fisher Scientific) for Ibuprofen (from Spectrum Chemicals), Cinnarizine (from Spectrum Chemicals), Indomethacin (from Spectrum Chemicals) and Griseofulvin (from MP Bio). The initial particle sizes of these suspension mixtures was reduced subject to focused acoustic processing using a Covaris SF220 High Performance Formulation Processing System under 150 Watts of power. Particle size distributions were measured using a Malvern Zetasizer Nano ZS-90 in the nanometer particle size range and a Malvern Mastersizer 2000 in the micron particle size range.
Suspension mixtures included water, 0.5% methyl cellulose and 0.1% sodium lauryl sulfate for Ibuprofen, Cinnarizine, Indomethacin and Griseofulvin at 15 mg/mL for batches of 2 mL, 12 mL and 18 mL. The 2 mL, 12 mL and 18 mL batches were subject to focused acoustic processing for 5 minutes, 5 minutes and 10 minutes, respectively. […] The image 400 prior to exposure to the focused acoustics depicts particles that are substantially larger (e.g., 15-20×) than corresponding particles shown in the image 402 after treatment of the particles to the focused acoustics. Particle size results for each of the four compounds are provided in Table 1 (particle sizes are noted as d90 unless specified otherwise).
The concentration of Ibuprofen was then varied in respective suspensions at fixed volumes of 2 mL, 12 mL and 18 mL. […] For instance, after 10 minutes of focused acoustic processing, the percent difference of the greatest variation in d90 particle size (i.e., 39.53-34.04=5.49) between concentrations (i.e., for 1 mg/mL, 15 mg/mL and 100 mg/mL) as compared to the initial d90 particle size (i.e., 203.67) is less than 3%.
Suspension mixtures included water, 0.025% methyl cellulose and 0.1% sodium lauryl sulfate for Ibuprofen, Cinnarizine, Indomethacin and Griseofulvin at 5 mg/mL for 2 mL batches. Each batch was subject to focused acoustic processing for 15 minutes and 30 minutes, respectively. Table 3 lists the average particle size results for each of the four compounds. Within 15 minutes, nano-suspensions were generated with an average particle size ranging between 100 nm and 280 nm for each of the mixtures. Within 30 minutes, an average particle size range of between 20 nm and 97 nm was achieved.
Using a scale-up system and without changing the mechanical attributes of the particle size reduction process, the Ibuprofen suspension mixture was increased to 250 mL. The flow rate was set to 30 mL/min. […] Suspension aliquots were analyzed by HPLC using a stability-indicating method as a guide. […] Through 60 minutes of focused acoustic processing, the particle size distribution of the suspension was measured to have a relative standard deviation of 0.38%. […]

[2] = Homogeneity and chemical stability of 250 mL Ibuprofen suspension (sampling at different depths, HPLC); assay type: physicochemical
Procedure: Using a scale-up system and without changing the mechanical attributes of the particle size reduction process, the Ibuprofen suspension mixture was increased to 250 mL. The flow rate was set to 30 mL/min. […] Suspension aliquots were analyzed by HPLC using a stability-indicating method as a guide. […] Through 60 minutes of focused acoustic processing, the particle size distribution of the suspension was measured to have a relative standard deviation of 0.38%. […] FIG. 7 illustrates the results of such size reduction over time for d90 particle size 410, d50 particle size 412 and d10 particle size 414.

[3] = 15 mg/mL suspension, 2 mL, 5 min
[4] = 15 mg/mL suspension, 12 mL, 5 min
[5] = 15 mg/mL suspension, 18 mL, 10 min
[6] = 15 mg/mL suspension, Initial (before focused acoustic processing)
[7] = nano-suspension, 5 mg/mL, 2 mL batch, 15 min
[8] = nano-suspension, 5 mg/mL, 2 mL batch, 30 min
[9] = nano-suspension, 5 mg/mL, 2 mL batch, Initial
[10] = 1, 15 and 100 mg/mL, after 10 minutes of processing

In the case of `COC1=CC(=O)C[C@@H](C)[C@]12Oc1c(Cl)c(OC)cc(OC)c1C2=O` [Griseofulvin], the “Particle size (d90)” value [1, 3] was 16.86 microns, the “Particle size (d90)” value [1, 4] was 31.45 microns and the “Particle size (d90)” value [1, 5] was 31.01 microns. The “Particle size (d90)” value [1, 6] was 44.45 microns, the Average particle size [1, 7] was 100 nm and the Average particle size [1, 8] was 90 nm. It also gave an Average particle size [1, 9] of 44.45 microns.

For `CC(C)Cc1ccc(C(C)C(=O)O)cc1` (stereo not drawn) [Ibuprofen], the “% of particles below 20 microns” value [1, 3] was “(100% of particles”, the “Particle size (d90)” value [1, 3] was 12.55 microns and the “% of particles below 40 microns” value [1, 4] was “(97% of particles”. For the same compound, the “Particle size (d90)” value [1, 4] was 33.35 microns, the “% of particles below 40 microns” value [1, 5] was “(97% of particles” and the “Particle size (d90)” value [1, 5] was 39.53 microns. The “% of particles above 40 microns” value ([1]; 15 mg/mL suspension, Initial) was “(97% of particles”, the “Particle size (d90)” value [1, 6] was 203.67 microns and the “Particles prior to focused acoustics larger than particles after treatment (micrographs, FIG. 6)” value ([1]; 15 mg/mL, 50× magnification) was 15-20 ×. For the same compound, the “Greatest variation in d90 particle size between concentrations” value [1, 10] was 5.49, the “Percent difference of greatest variation in d90 between concentrations compared to initial d90” value [1, 10] was “less than 3%” and the “Percentage of particles below 40 microns” value ([1]; 250 mL scale-up, 15 min) was 90%. For the same compound, the d10 ([1]; 250 mL scale-up, 15 min) was 6.805 microns, the d50 ([1]; 250 mL scale-up, 15 min) was 21.701 microns and the d90 ([1]; 250 mL scale-up, 15 min) was 39.726 microns. The “Percentage of particles below 40 microns” value ([1]; 250 mL scale-up, 30 min) was 93.57%, the d10 ([1]; 250 mL scale-up, 30 min) was 6.023 microns and the d50 ([1]; 250 mL scale-up, 30 min) was 19.055 microns. For the same compound, the d90 ([1]; 250 mL scale-up, 30 min) was 36.328 microns, the “Percentage of particles below 40 microns” value ([1]; 250 mL scale-up, 45 min) was 98.31% and the d10 ([1]; 250 mL scale-up, 45 min) was 3.583 microns. For the same compound, the d50 ([1]; 250 mL scale-up, 45 min) was 16.167 microns, the d90 ([1]; 250 mL scale-up, 45 min) was 31.091 microns and the “Percentage of particles below 40 microns” value ([1]; 250 mL scale-up, 60 min) was 98.39%. It also gave a d10 ([1]; 250 mL scale-up, 60 min) of 3.351 microns, a d50 ([1]; 250 mL scale-up, 60 min) of 14.843 microns and a d90 ([1]; 250 mL scale-up, 60 min) of 28.005 microns. The “Percentage of particles below 40 microns” value ([1]; 250 mL scale-up, Initial) was 5%, the d10 ([1]; 250 mL scale-up, Initial) was 50 microns and the d50 ([1]; 250 mL scale-up, Initial) was 97.834 microns. For the same compound, the d90 ([1]; 250 mL scale-up, Initial) was 203.67 microns, the “Particle size (d90)” value ([1]; Table 2, 1 mg/mL, 2 mL, 5 min) was 12.55 microns and the “Particle size (d90)” value ([1]; Table 2, 1 mg/mL, 12 mL, 5 min) was 33.35 microns. The “Particle size (d90)” value ([1]; Table 2, 1 mg/mL, 18 mL, 10 min) was 39.53 microns, the “Particle size (d90)” value ([1]; Table 2, 1 mg/mL, Initial) was 203.67 microns and the “Particle size (d90)” value ([1]; Table 2, 15 mg/mL, 2 mL, 5 min) was 19.03 microns. For the same compound, the “Particle size (d90)” value ([1]; Table 2, 15 mg/mL, 12 mL, 5 min) was 34.88 microns, the “Particle size (d90)” value ([1]; Table 2, 15 mg/mL, 18 mL, 10 min) was 34.04 microns and the “Particle size (d90)” value ([1]; Table 2, 15 mg/mL, Initial) was 203.67 microns. The “Particle size (d90)” value ([1]; Table 2, 100 mg/mL, 2 mL, 5 min) was 29.54 microns, the “Particle size (d90)” value ([1]; Table 2, 100 mg/mL, 12 mL, 5 min) was 37.78 microns and the “Particle size (d90)” value ([1]; Table 2, 100 mg/mL, 18 mL, 10 min) was 35.53 microns. For the same compound, the “Particle size (d90)” value ([1]; Table 2, 100 mg/mL, Initial) was 203.67 microns, the Average particle size [1, 7] was 110 nm and the Average particle size [1, 8] was 97 nm. For the same compound, the Average particle size [1, 9] was 203.67 microns, the Homogeneity of suspension ([2]; first measured time point of 15 minutes) was “homogeneous” and the “Chemical stability (impurity growth, HPLC)” value ([2]; over 60 minutes of processing) was “no impurity growth”.

For `O=c1c(O)c(-c2ccc(O)c(O)c2)oc2cc(O)cc(O)c12` [Quercetin], the Average particle size ([1]; 250 mL in water, no surfactant, 24 degrees C., in under 80 minutes) was “less than 10 microns” and the Average particle size ([1]; 250 mL in water, no surfactant, before processing) was “over 200 microns”.

In the case of `C(=C\c1ccccc1)/CN1CCN(C(c2ccccc2)c2ccccc2)CC1` [Cinnarizine], the “Particle size (d90)” value [1, 3] was 37.29 microns, the “Particle size (d90)” value [1, 4] was 41.73 microns and the “Particle size (d90)” value [1, 5] was 43.00 microns. For the same compound, the “Particle size (d90)” value [1, 6] was 149.17 microns, the Average particle size ([1]; 250 mL scale-up, 1 hour of processing) was 1 micron and the Average particle size ([1]; 250 mL scale-up, about 9 hours) was “approximately 200 nm”. For the same compound, the Average particle size ([1]; 250 mL scale-up, starting) was “approximately 200 microns”, the Average particle size [1, 7] was 280 nm and the Average particle size [1, 8] was 56.85 nm. For the same compound, the Average particle size [1, 9] was 149.17 microns.

In the case of `COc1ccc2c(c1)c(CC(=O)O)c(C)n2C(=O)c1ccc(Cl)cc1` [Indomethacin], the “Particle size (d90)” value [1, 3] was 20.88 microns, the “Particle size (d90)” value [1, 4] was 38.32 microns and the “Particle size (d90)” value [1, 5] was 28.73 microns. For the same compound, the “Particle size (d90)” value [1, 6] was 239.88 microns, the Average particle size ([1]; in water, after exposure to focused acoustic energy (FIG. 12)) was “approximately 5 microns” and the Average particle size [1, 7] was 127.4 nm. The Average particle size [1, 8] was 20 nm and the Average particle size [1, 9] was 239.88 microns.
